Experimental findings from patent US20070116645A1, “Methods and compositions for inhibiting cholesterol uptake” (priority 2004, published 2007) are described below.

For series [1], the system named is CAV1-ANX2b heterocomplex. As to the kind of experiment: Immunoprecipitation and immunoblot for the CAV1-ANX2b heterocomplex in morpholino-injected embryos. The class given is in vivo, zebrafish. The conditions noted are these: for CAV1-ANX2b heterocomplex present / ANX2b protein detected / CAV1 protein detected: 48 hpf embryos, MO injected at 1-8 cell stage; for ANX2b protein detected / CAV1 protein detected: FIG. 3A. On the procedure: (§1) All morpholino oligonucleotides were commercially obtained (GeneTools LLC, Philomath, Oreg.). Sequences used were: cav1, 5′-[…]-3′ (SEQ ID NO: 10); anx2b, 5′-[…]-3′ (SEQ ID NO: 11); anx2b (4 base mismatch), 5′-GCCAATT TCGTTAGTAGTTGAAGAG-3 (SEQ ID NO: 12)′; anx2a, 5′-[…]-3′ (SEQ ID NO: 13). MOs were dissolved in Danieau buffer (3) at a concentration of (1-3 μg/μl) and pressure injected into the yolk of early stage larvae (1-8 cell stage) as described (3).
The embryos were lysed in 1 ml of buffer (150 mM NaCl, 1.0% NP-40, 0.5% deoxycholate, 0.1% SDS, 50 mM Tris, pH 8.0) and protein amounts determined by Lowry. Equal amounts of lysate (50 ug) were mixed together in the lysis buffer for 1 hour at 37 °C. At the end of the incubation protein A-sepharose beads (blocked with lysis buffer and 30 mg/ml BSA) were used to pre-clear the samples. Pre-cleared samples were than incubated for 18 hours at 4° C. with the appropriate antibody (2 ug/sample) before adding blocked, protein A-sepharose beads and incubating an additional 2 hours at 4° C. The beads were collected by centrifugation, washed five times in high salt RIPA buffer (500 mM NaCl). The samples were than analyzed by SDS-PAGE and immunoblot.

The test system of series [2] is zebrafish embryos. Put plainly: Uptake of 14C-labeled glucose in embryos. In kind it is in vivo. The following applies: 5 dpf embryos, data not shown. Here is the method: Embryos (uninjected or anx2b MO injected) at 5 dpf were placed at ten per tube in 0.5 ml embryo medium (21) containing methyl-D-glucose, 3-O-[glucose-^14C(U)] (American Radiolabeled Chemicals, Inc.) at a concentration of 12.5 μM and incubated at room temperature for 2 hours. Embryos were then chased with 0.5 ml embryo medium with 125 μM unlabeled glucose and incubated 30 minutes, then rinsed three times with chase solution, transferred to fresh tubes, vigorously homogenized with a pestle, and transferred into scintillation fluid for liquid scintillation counting. Three separate trials with 2 or 3 tubes each of uninjected and injected embryos were performed.

Series [3] concerns zebrafish larvae. As to the kind of experiment: In vivo assay for cholesterol transport (NBD-cholesterol intestinal fluorescence). The conditions noted are these: 5 dpf larvae, three independent experiments, ANOVA p<0.00001. On the procedure:
Embryos (uninjected or anx2b MO injected) at 5 dpf were labeled with NBD-cholesterol (1,26) and blind-sorted into three groups based on intestinal fluorescence, each assigned a numerical value: 1=no or weak fluorescence, 2=moderate, 3=strong; total n=41 uninjected, 55 injected.
Zebrafish larvae were labeled (2 h) with NBD-Cholesterol prepared as previously described (1) in embryo medium (21), anesthetized (tricaine, 170 ug/ml) and placed in depression slides. Fluorescent images were captured using a Zeiss Axiocam 2 mounted on a Leica MZFL-III. For statistical analysis intestinal fluorescence was scored on a three point scale (weak, moderate and bright) and analyzed (ANOVA).

Series [4] relates to zebrafish embryos. As to the kind of experiment: Embryo lipid composition by SPE and GC-MS (cholesterol, cholesteryl ester, triglycerides). The class given is in vivo. The following applies: 72 hpf embryos, FIG. 5C. Here is the method: Approximately 80 embryos at 72 hpf were placed in 0.7 ml of MBST/OG (25 mM MES, pH 6.5, 0.15 M NaCl, 1% (v/v) Triton X-100, 60 mM octylglucoside, 0.1% (w/v) SDS) and homogenized with a Tissue-Tearor™ homogenizer (Biospec Products, Inc). The sample was then sonicated (50 watts) for ten seconds, three times on ice, centrifuged at 1000×g for 5 minutes and the supernatant collected. Neutral lipids were isolated by Solid Phase Extraction (SPE) on an Oasis HLB 5 cc/200 mg LP Glass Cartridges (Waters, Milford Mass.). The columns were pre-conditioned with 3 ml of methyl tetr-butyl ether, then 3 ml methanol, and finally 3 ml of water. The sample (0.5 ml) was mixed with acetic acid (1 ml) and 5α-androstane-3α-17β-diol (recovery standard, 40 μl) and immediately applied to the column. The column was washed with 2 ml of 2% acetic acid followed by 2 ml of methanol (2%):acetic acid (2%). Neutral lipids were eluted with 3 ml of methyl tetr-butyl ether:methanol:acetic acid (75:23:2). The eluted material was dried under nitrogen, dissolved in 150 μl of hexane:isopropanol (3:2) and transferred to a gas chromatography vial. The material was dissolved in 20 μl of hexamethyldisilazane: pentafluoropropionic anhydride:acetonitrile (100:2:20) for 20 minutes at room temperature and […] was then injected onto a Chemstation gas chromatograph with a mass selective detector, Model 6890 (Agilent Technologies, Wilmington, Del.) and equipped with a SPE HT5 Aluminum Clad Fused Silica Capillary Column, 12 m, 0.32 mm ID, 0.1 um film (Supelco, Bellefonte, Pa.). The inlet temperature was 220° C., the interface temperature was 340° C. and the oven program was 140° C., hold 3 min, 20° C./min to 380° C., hold 5 min. Method of lipid detection was SIM mode with the following mass numbers: 416 for 5α-androstane-3α-17β-diol, 436 for TMS-cholesterol, 368 for cholesterol esters, 98 for triglycerides. A two step procedure was used to quantify the lipids. […]

In series [5] the test system is zebrafish embryos. Put plainly: Developmental phenotype of morpholino-injected embryos (morphology, myoD in situ hybridization). In kind it is in vivo. On the procedure: as §1
Methods for breeding and raising zebrafish were followed as described (21). Embryos were obtained from natural matings of wild-type (Oregon, AB) fish and staged according to criteria previously outlined (22) and by hours post-fertilization (hpf). Digoxigenin-labeled RNA probes synthesized for each gene were hybridized to embryos or larvae at various developmental stages. In situ hybridization for anx2b and cav1 expression was carried out as previously described (22).

Entries after “also recorded” stand apart in the source; their conditions may differ.

For the substance “anx2a MO: morpholino antisense oligonucleotide against zebrafish anx2a, 5′-CTAAGAACTCAGAGACCAAAGCCAT-3′ (SEQ ID NO: 13) (all phosphorodiamidate morpholino (PMO)) [reference compound]”, the CAV1-ANX2b heterocomplex present result in series [1] was “contained the CAV1-ANX2b heterocomplex exactly like the uninjected embryos”.

For “anx2b MO containing 4 bases mismatched: control morpholino, anx2b with 4 base mismatch, 5′-GCCAATT TCGTTAGTAGTTGAAGAG-3 (SEQ ID NO: 12) (antisense GCCAATTTCGTTAGTAGTTGAAGAG; all phosphorodiamidate morpholino (PMO); mismatch control morpholino) [reference compound]”, in series [1], the CAV1-ANX2b heterocomplex present result is “contained the CAV1-ANX2b heterocomplex exactly like the uninjected embryos”.

“anx2b MO: morpholino antisense oligonucleotide against zebrafish anx2b, 5′-GCCATTTTCCTTAGTTGTTGTAGAG-3′ (SEQ ID NO: 11) (all phosphorodiamidate morpholino (PMO))”: the “Uptake of 14C-labeled glucose versus uninjected embryos” value in series [2] is given as “the same”. In series [1] (24, 48 and 72 hpf, FIG. 5B lanes 2-4), the “ANX2b and complex detected (duration of MO effect)” value was “no ANX2b and thus no complex is detected”. Also, in series [1], the CAV1-ANX2b heterocomplex present entry is listed as “only CAV protein monomer”, the ANX2b protein detected entry was “did not contain ANX2b protein” and the CAV1 protein detected result is recorded as “only detected as a monomer”. Moreover, the “ANX2b detected (duration of MO effect)” value in series [1] (96 hpf, FIG. 5B lane 5) is recorded as “again detected”. In addition, the “Intestinal fluorescence after feeding NBD-cholesterol” value in series [3] is “a subset of the injected larvae failed to accumulate the fluorescent cholesterol analog in the digestive tract; also recorded: significant reduction in intestinal fluorescence”. Also, in series [4], the “Level of cholesterol versus uninjected embryos” value is recorded as “significantly lower”, the “Level of cholesteryl ester versus uninjected embryos” value is recorded as “significantly lower” and the “Level of triglycerides versus uninjected embryos” value is “unaffected”. In series [5] (zebrafish, in vivo), the Developmental abnormalities result is “did not show any obvious developmental abnormalities”.

With “cav1 MO: morpholino antisense oligonucleotide against zebrafish cav1, 5′-TGTCCCGTCCTTGTATCCGCTAGTC-3′ (SEQ ID NO: 10) (all phosphorodiamidate morpholino (PMO))”, in series [1], the CAV1-ANX2b heterocomplex present entry was “only ANX2 protein monomer and no complex”; the ANX2b protein detected result is recorded as “seen only as a monomer”; the CAV1 protein detected result is given as “not detected”. The “Survival to the stage where NBD-cholesterol is ingested” value in series [5] (MO-injected larvae) is listed as “failed to survive to a stage where NBD-cholesterol is ingested”. In addition, in series [5] (zebrafish, in vivo), the Developmental abnormalities result was “early developmental abnormalities including defects in axis elongation and somite patterning”; the “Somite morphology (myoD riboprobe)” value is listed as “abnormal somites”.
